Source: patent publication US20140163083A1, “NOVEL CRYSTALLINE SALTS OF ASENAPINE” (SANDOZ AG, priority 2011, published 2014)
Structures can show the parent of a compound that is named as a salt.

Tests used:
[1] = Saturated solution of the maleate salt (Funke et al., literature); assay type: physicochemical; conditions: water, thermodynamic from solid; translated from saturated solution of the maleate at 23° C., pH=4.4; read-out: free base solubility
[2] = 23° C., pH=4.4; cited from earlier work
[3] = Hygroscopic nature by dynamic vapor sorption; assay type: physicochemical; conditions: relative humidities greater than about 20%
Text: The hygroscopic nature of the succinate salt hemihydrate was investigated by dynamic vapor sorption.

| Molecule | solubility [1] | concentration of saturated solution [2] | water content by dynamic vapor sorption [3] |
| --- | --- | --- | --- |
| CN1C[C@@H]2c3ccccc3Oc3ccc(Cl)cc3[C@H]2C1 (relative stereo) [maleate salt of Asenapine, trans-5-chloro-2-methyl-2,3,3a,12b-tetrahydro-1H-dibenz[2,3:6,7]oxepino[4,5-c]pyrrole] | ~4100 µg/mL | 5800 µg/mL | – |
| Asenapine succinate form I [succinate salt hemihydrate] | – | – | 2 to 2.5% |
